From patent US10111435B2, “Herbicidal compositions containing N-(1,3,4-oxadiazol-2-yl)-aryl carboxylic acid amides” (BAYER CROPSCIENCE AKTIENGESELLSCHAFT, priority 2013, dated 2018)

Legend:
Format in all cases: in vivo
[1] = test system: Phalaris minor (PHAMI); assay: greenhouse post-emergence herbicidal efficacy against PHAMI
Experimental: (§1) All trials whose results are shown were conducted in a greenhouse by the methodology specified below. The effect of the inventive herbicidal compositions was examined on the following harmful plants 14 and 21 days after application:
(§2) Echinochloa crus-galli (ECHCG), Eleusine indica (ELEIN), Setaria viridis (SETVI), Amaranthus retroflexus (AMARE), Chenopodium album (CHEAL), Kochia scoparia (KCHSC), Solanum nigrum (SOLNI), Avena fatua (AVEFA), Bromus sterilis (BROST), Lolium multiflorum (LOLMU), Phalaris minor (PHAMI), Poa annua (POAAN), Galium aparine (GALAP), Matricaria inodora (MATIN) and Polygonum convolvulus (POLCO).
(§3) The harmful plant seeds were sown in pots (diameter 8 cm) with sandy loam soil and germinated under optimal conditions. The inventive herbicidal compositions or the active ingredients alone were applied post-emergence to the planted pots with a spray volume of 300 L/ha. The trial was conducted in a greenhouse under optimum growth conditions. The herbicidal effects were assessed visually by comparison of untreated and treated plants. The percentages mean: 0%=no effects, 100%=the plants die off completely).
(§4) The abbreviations mean: • a.i.=active ingredient • E^C=expected value according to Colby (E^C=A+B−A×B/100) • Diff: =difference (%) of measured value from expected value (%) (measured value minus expected value)
(§5) Assessment: • measured value E is greater than E^C:->synergism (+ diff.) • measured value E equals E^C:->additive effect • measured value E is smaller than E^C:->antagonism(− diff.)

[2] = test system: Avena fatua (AVEFA); assay: greenhouse post-emergence herbicidal efficacy against AVEFA
Experimental: as §1, §2, §3, §4, §5

[3] = test system: Poa annua (POAAN); assay: greenhouse post-emergence herbicidal efficacy against POAAN
Experimental: as §1, §2, §3, §4, §5

[4] = test system: Matricaria inodora (MATIN); assay: greenhouse post-emergence herbicidal efficacy against MATIN
Experimental: as §1, §2, §3, §4, §5

[5] = test system: Lolium multiflorum (LOLMU); assay: greenhouse post-emergence herbicidal efficacy against LOLMU
Experimental: as §1, §2, §3, §4, §5

[6] = test system: Galium aparine (GALAP); assay: greenhouse post-emergence herbicidal efficacy against GALAP
Experimental: as §1, §2, §3, §4, §5

[7] = test system: Polygonum convolvulus (POLCO); assay: greenhouse post-emergence herbicidal efficacy against POLCO
Experimental: as §1, §2, §3, §4, §5

[8] = test system: Bromus sterilis (BROST); assay: greenhouse post-emergence herbicidal efficacy against BROST
Experimental: as §1, §2, §3, §4, §5

[9] = 14 days after application, g of a.i./ha: A1-57 12.5, aclonifen 200
[10] = 14 days after application, g of a.i./ha: A1-57 12.5, aclonifen 800
[11] = 14 days after application, g of a.i./ha: A1-57 50, aclonifen 200
[12] = 21 days after application, g of a.i./ha: A1-57 12.5, aclonifen 200
[13] = 21 days after application, g of a.i./ha: A1-57 12.5, aclonifen 800
[14] = 14 days after application, g of a.i./ha: A1-57 50, aclonifen 800
[15] = 21 days after application, g of a.i./ha: A1-57 50, aclonifen 800
[16] = 14 days after application, 80 g of a.i./ha
[17] = 21 days after application, g of a.i./ha: A2-1 12.5, fluroxypyr 80
[18] = 21 days after application, g of a.i./ha: A2-1 50, fluroxypyr 80
[19] = 14 days after application, 20 g of a.i./ha
[20] = 21 days after application, g of a.i./ha: A2-1 12.5, fluroxypyr 20
[21] = 21 days after application, g of a.i./ha: A2-1 50, fluroxypyr 20
[22] = 14 days after application, 320 g of a.i./ha
[23] = 21 days after application, g of a.i./ha: A1-36 10, flurtamone 80
[24] = 21 days after application, g of a.i./ha: A1-36 2.5, flurtamone 80
[25] = 21 days after application, g of a.i./ha: A1-36 2.5, flurtamone 320
[26] = 21 days after application, g of a.i./ha: A1-36 10, flurtamone 320

Nc1c([N+](=O)[O-])ccc(Oc2ccccc2)c1Cl [aclonifen]
Efficacy [1, 9]: 0%
Efficacy [1, 10]: 40%
Efficacy [1, 11]: 0%
Efficacy [1, 12]: 0%
Efficacy [1, 13]: 15%
Efficacy ([2]; 14 days after application, 200 g of a.i./ha): 0%
Efficacy ([2]; 14 days after application, 800 g of a.i./ha): 0%
Efficacy [2, 9]: 0%
Efficacy [2, 13]: 0%
Efficacy [3, 9]: 0%
Efficacy [3, 10]: 30%
Efficacy [3, 11]: 0%
Efficacy [3, 14]: 30%
Efficacy [3, 13]: 10%
Efficacy ([3]; 21 days after application, g of a.i./ha: A1-57 50, aclonifen 200): 0%
Efficacy [3, 15]: 10%
Efficacy [4, 9]: 0%
Efficacy [4, 10]: 0%
Efficacy [4, 14]: 0%
Efficacy [4, 15]: 0%
Efficacy [5, 10]: 0%
Efficacy [5, 14]: 0%
Efficacy [6, 9]: 20%
Efficacy [6, 11]: 20%
Efficacy [6, 15]: 20%
Efficacy [7, 9]: 0%
Efficacy [7, 10]: 10%
Efficacy [7, 12]: 0%
Efficacy [8, 9]: 0%
Efficacy [8, 10]: 0%
Efficacy [8, 14]: 0%
Efficacy [8, 13]: 0%
Efficacy [8, 15]: 0%

Nc1c(Cl)c(F)nc(OCC(=O)O)c1Cl [fluroxypyr]
Efficacy [1, 16]: 15%
Efficacy [1, 17]: 0%
Efficacy [1, 18]: 0%
Efficacy [2, 16]: 0%
Efficacy [2, 17]: 0%
Efficacy [2, 18]: 0%
Efficacy [3, 19]: 0%
Efficacy [3, 20]: 0%
Efficacy [3, 17]: 10%
Efficacy [4, 20]: 20%
Efficacy [4, 17]: 50%
Efficacy [4, 21]: 20%
Efficacy [4, 18]: 50%
Efficacy [5, 16]: 0%
Efficacy [5, 18]: 0%
Efficacy [7, 19]: 70%
Efficacy [7, 20]: 80%
Efficacy [7, 21]: 80%
Efficacy [8, 16]: 0%
Efficacy [8, 18]: 0%

CNC1=C(c2cccc(C(F)(F)F)c2)C(=O)C(c2ccccc2)O1 (centres unmarked) [flurtamone]
Efficacy [1, 16]: 40%
Efficacy [1, 22]: 50%
Efficacy [1, 23]: 40%
Efficacy [2, 16]: 0%
Efficacy [2, 22]: 15%
Efficacy [2, 24]: 0%
Efficacy [2, 25]: 0%
Efficacy [2, 23]: 0%
Efficacy [2, 26]: 0%
Efficacy [4, 16]: 50%
Efficacy [4, 22]: 50%
Efficacy [4, 24]: 25%
Efficacy [4, 25]: 30%
Efficacy [4, 23]: 25%
Efficacy [4, 26]: 30%
Efficacy [5, 16]: 30%
Efficacy [5, 23]: 20%
Efficacy [6, 16]: 40%
Efficacy [6, 22]: 80%
Efficacy [6, 24]: 0%
Efficacy [6, 23]: 0%
Efficacy [6, 26]: 70%
Efficacy [7, 16]: 50%
Efficacy [7, 22]: 30%
Efficacy [7, 23]: 0%
Efficacy [7, 26]: 30%
Efficacy [8, 16]: 0%
Efficacy [8, 22]: 10%
Efficacy [8, 24]: 0%
Efficacy [8, 25]: 10%
